Test results from patent US20250073207A1, “PSILOCIN BENZOATE FORMULATION FOR I[…]” (Eleusis Therapeutics US, Inc., priority 2022, published 2025).

Legend:
[1] = Stability in solution of psilocin free base versus benzoate salt; settings: prone to oxidation
[2] = Solubility testing of psilocin benzoate salt in potential intravenous vehicles
Description: Solubility of the psilocin benzoate salt was assessed in a range of potential intravenous vehicles. […] Each vehicle was degassed by sonication prior to use.
The pH of each formulation was measured and samples for assay analysis from each formulation were taken following preparation and then again following 6 hours bench top storage at ambient temperature.

| SMILES | stability in solution [1] | solubility under saturating conditions ([2]; all of the vehicles on test) | limit of solubility ([2]; in aqueous solution) |
| --- | --- | --- | --- |
| CN(C)CCc1c[nH]c2cccc(O)c12.O=C(O)c1ccccc1 [psilocin benzoate] | more stable | partially soluble | approximately 4 mg/ml |
| CN(C)CCc1c[nH]c2cccc(O)c12 [Psilocin] | highly unstable in solution | – | – |
